Experimental data taken from patent US20110086759A1, “CHEMICAL COMPOUNDS” (SYNGENTA CROP PROTECTION, INC., priority 2007, published 2011).

Columns and labels:
Type in all cases: in vivo
[1] = test system: Alopecurus myosuroides (ALOMY); test: Pre-emergence biological efficacy, glasshouse pot test; details: 312 h, pre-emergence, rate 1,000 g/ha, evaluated after 13 days (100=total damage to plant; 0=no damage), read-out: Percentage damage caused to weed species, ALOMY
In short: (§1)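 One day after seeds were sown in pots, compound was sprayed at 1000 or 250 g/ha. Plants were kept at 24/16 °C with 14 h light and 65% humidity and watered twice daily; damage was graded at day 13 (0 none, 100 total).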

[2] = test system: Amaranthus retoflexus (AMARE); test: as above; details: Amaranthus retroflexus, 312 h; pre-emergence, rate 1,000 g/ha, evaluated after 13 days (100=total damage to plant; 0=no damage); read-out: Percentage damage caused to weed species, AMARE
In short: as §1

[3] = test system: Echinochloa crus-galli (ECHCG); test: as above; details: 312 h, pre-emergence, rate 1,000 g/ha, evaluated after 13 days (100=total damage to plant; 0=no damage), read-out: Percentage damage caused to weed species, ECHCG
In short: as §1

[4] = test system: Ipomea hederaceae (IPOHE); test: as above; details: Ipomoea hederacea, 312 h; pre-emergence, rate 1,000 g/ha, evaluated after 13 days (100=total damage to plant; 0=no damage); read-out: Percentage damage caused to weed species, IPOHE
In short: as §1

Setaria faberi (SETFA) [5] = test: as above; details: 312 h, pre-emergence, rate 1,000 g/ha, evaluated after 13 days (100=total damage to plant; 0=no damage), read-out: Percentage damage caused to weed species, SETFA
In short: as §1

Solanum nigrum (SOLNI) [6] = test: as above; details: 312 h, pre-emergence, rate 1,000 g/ha, evaluated after 13 days (100=total damage to plant; 0=no damage), read-out: Percentage damage caused to weed species, SOLNI
In short: as §1

[7] = test system: Alopecurus myosuroides (ALOMY); test: Post-emergence biological efficacy, glasshouse pot test; details: 312 h, Rate 1,000 g/ha, post-emergence spray, evaluated after 13 days (100=total damage to plant; 0=no damage to plant), read-out: Percentage damage caused to weed species, post-emergence, ALOMY
In short: (§2)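 Plants were sown in standard soil and grown 8 days in a glasshouse (24/16° C. day/night, 14 hours light, 65% humidity), then sprayed post-emergence at 1000 or 250 g/ha from acetone/water (50:50) with 0.5% Tween 20. Damage was scored visually after 13 days (0 = none, 100 = total).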

[8] = test system: Amaranthus retoflexus (AMARE); test: as above; details: Amaranthus retroflexus, 312 h; Rate 1,000 g/ha; post-emergence spray; evaluated after 13 days (100=total damage to plant; 0=no damage to plant); read-out: Percentage damage caused to weed species, post-emergence, AMARE
In short: as §2

[9] = test system: Echinochloa crus-galli (ECHCG); test: as above; details: 312 h, Rate 1,000 g/ha, post-emergence spray, evaluated after 13 days (100=total damage to plant; 0=no damage to plant), read-out: Percentage damage caused to weed species, post-emergence, ECHCG
In short: as §2

[10] = test system: Ipomea hederaceae (IPOHE); test: as above; details: Ipomoea hederacea, 312 h; Rate 1,000 g/ha; post-emergence spray; evaluated after 13 days (100=total damage to plant; 0=no damage to plant); read-out: Percentage damage caused to weed species, post-emergence, IPOHE
In short: as §2

Setaria faberi (SETFA) [11] = test: as above; details: 312 h, Rate 1,000 g/ha, post-emergence spray, evaluated after 13 days (100=total damage to plant; 0=no damage to plant), read-out: Percentage damage caused to weed species, post-emergence, SETFA
In short: as §2

Solanum nigrum (SOLNI) [12] = test: as above; details: 312 h, Rate 1,000 g/ha, post-emergence spray, evaluated after 13 days (100=total damage to plant; 0=no damage to plant), read-out: Percentage damage caused to weed species, post-emergence, SOLNI
In short: as §2

Row | SMILES | pest or weed control at 1000 g/ha [1] | pest or weed control at 1000 g/ha [2] | pest or weed control at 1000 g/ha [3] | pest or weed control at 1000 g/ha [4] | pest or weed control at 1000 g/ha (Setaria faberi (SETFA) [5]) | pest or weed control at 1000 g/ha (Solanum nigrum (SOLNI) [6]) | pest or weed control at 1000 g/ha [7] | pest or weed control at 1000 g/ha [8] | pest or weed control at 1000 g/ha [9] | pest or weed control at 1000 g/ha [10] | pest or weed control at 1000 g/ha (Setaria faberi (SETFA) [11]) | pest or weed control at 1000 g/ha (Solanum nigrum (SOLNI) [12])
1 | COC(=O)c1nc(-c2ccc(Cl)c(F)c2F)nc(NCc2ccco2)c1Cl [Compound 225-48, 5-Chloro-2-(4-chloro-2,3-difluorophenyl)-4-(furan-2-ylmethyl-amino)-6-methoxy-carbonylpyrimidine] | 60% | 100% | 30% | 70% | 80% | 90% | 60% | 100% | 60% | 90% | 80% | 90%
2 | COC(=O)c1nc(-c2ccc(Cl)c(Cl)c2F)nc(NCc2ccco2)c1Cl [Compound 226-48, 5-Chloro-2-(3,4-dichloro-2-fluorophenyl)-4-(furan-2-ylmethyl-amino)-6-methoxy-carbonylpyrimidine] | 50% | 100% | 30% | 30% | 40% | 100% | 50% | 100% | 60% | 60% | 80% | 90%
3 | COC(=O)c1nc(-c2cc(Cl)c(Cl)cc2Cl)nc(NCc2ccco2)c1Cl [Compound 228-48, 5-Chloro-4-(furan-2-ylmethylamino)-6-methoxycarbonyl-2-(2,4,5-trichloro-phenyl)pyrimidine] | 0% | 30% | 0% | 0% | 0% | 0% | 20% | 70% | 0% | 10% | 20% | 30%
4 | COC(=O)c1nc(-c2ccc(Cl)c(OC)c2)nc(NCc2ccco2)c1Cl [Compound 229-48, 5-Chloro-2-(4-chloro-3-methoxyphenyl)-4-(furan-2-ylmethyl-amino)-6-methoxy-carbonylpyrimidine] | 10% | 100% | 0% | 0% | 30% | 90% | 10% | 100% | 30% | 30% | 60% | 80%
5 | COC(=O)c1nc(-c2ccc(Cl)c(C(F)(F)F)c2F)nc(NCc2ccco2)c1Cl [Compound 230-48, 5-Chloro-2-(4-chloro-2-fluoro-3-trifluoro-methylphenyl)-4-(furan-2-ylmethyl-amino)-6-methoxy-carbonylpyrimidine] | 30% | 70% | 20% | 50% | 50% | 70% | 30% | 100% | 90% | 60% | 70% | 80%
6 | COC(=O)c1nc(-c2ccc(Cl)c(Cl)c2Cl)nc(NCc2ccco2)c1Cl [Compound 231-48, 5-Chloro-4-(furan-2-ylmethylamino)-6-methoxycarbonyl-2-(2,3,4-trichloro-phenyl)pyrimidine] | 40% | 100% | 30% | 10% | 20% | 40% | 50% | 100% | 30% | 70% | 70% | 80%
7 | COC(=O)c1nc(-c2cc(F)c(Cl)c(F)c2)nc(NCc2ccco2)c1Cl [Compound 232-48, 5-Chloro-2-(4-chloro-3,5-difluorophenyl)-4-(furan-2-ylmethyl-amino)-6-methoxy-carbonylpyrimidine] | 0% | 0% | 0% | 0% | 0% | 0% | 0% | 20% | 0% | 10% | 0% | 60%
8 | COC(=O)c1nc(-c2ccc(C(F)(F)F)cc2)nc(NCc2ccco2)c1Cl [Compound 233-48, 5-Chloro-4-(furan-2-ylmethylamino)-6-methoxycarbonyl-2-(4-trifluoromethyl-phenyl)pyrimidine] | 30% | 100% | 20% | 60% | 20% | 100% | 20% | 80% | 30% | 70% | 10% | 80%
9 | COC(=O)c1nc(-c2ccc(C(F)(F)F)cc2C(F)(F)F)nc(NCc2ccco2)c1Cl [Compound 234-48, 2-[2,4-Bis(trifluoro-methyl)phenyl]-5-chloro-4-(furan-2-yl-methylamino)-6-methoxycarbonyl-pyrimidine] | 20% | 90% | 10% | 100% | 10% | 80% | 10% | 100% | 30% | 100% | 40% | 80%
10 | COC(=O)c1nc(-c2ccc(C(F)(F)F)c(Cl)c2)nc(NCc2ccco2)c1Cl [Compound 235-48, 5-Chloro-2-(3-chloro-4-trifluoromethyl-phenyl)-4-(furan-2-ylmethylamino)-6-methoxycarbonyl-pyrimidine] | 0% | 10% | 0% | 20% | 0% | 20% | 10% | 80% | 0% | 60% | 10% | 80%
